Data on 17 compounds can be found in PubChem BioAssay (NCI).

Test systems include MDA-N; DMS 114 small cell lung; HOP-18 NSCLC; KM20L2 colon; LXFL 529 NSCLC; M19-MEL melanoma; RXF-631 renal; SNB-78 CNS; XF 498 CNS.
Common to all, as to experiment: inhibition of tumour cell growth, NCI panel, 48 h

SMILES strings stand for the structures. Values joined by “and” are separate entries in the source; they are usually repeats but may differ in a detail not shown here. Equal entries are not always repeated.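 These data come from cells grown in 96-well plates and exposed to compound for 48 hours at five concentrations. Abbreviation: GI50, concentration required for 50% inhibition of growth. TGI: concentration producing complete growth inhibition.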

Take `Cn1c(=O)c2[nH]c(SCCN3CCOCC3)nc2n(C)c1=S`: the TGI in the assay on MDA-N was above 100 µM.

For the compound `COC(=O)CCC12CCC(=O)C1[C@@H](C(=O)OC)C[C@H]2C(=O)OC` (stereo partly specified), the TGI in the assay on DMS 114 small cell lung, in the assay on HOP-18 NSCLC, with KM20L2 colon, in the assay with LXFL 529 NSCLC, in the assay with M19-MEL melanoma and in the assay on RXF-631 renal was above 100 µM in each case. Further, the TGI in the assay on SNB-78 CNS and in the assay with XF 498 CNS was above 100 µM in each case.

On to `Cc1c2c(cc3c1C(=O)C(=O)C1=C3OC[C@@H]1C)C(C)(C)CCC2`, for which the TGI was found to be 31.9 µM with DMS 114 small cell lung; 32.3 µM in the assay on HOP-18 NSCLC; 44.5 µM in the assay with KM20L2 colon; 37.6 µM with LXFL 529 NSCLC; 6.68 µM in the assay with M19-MEL melanoma; 55.7 µM with XF 498 CNS.

With `CN(C)c1nc(=NCc2ccco2)ss1`, the TGI with HOP-18 NSCLC is above 100 µM; in the assay on KM20L2 colon, above 100 µM; with LXFL 529 NSCLC, above 100 µM; with M19-MEL melanoma, above 43.6 µM; with MDA-N, 33.7 µM; with SNB-78 CNS it was above 100 µM. For the same compound, the TGI with XF 498 CNS is above 100 µM.

Take `O=C1C(=O)N(c2ccc(Cl)cc2)C(=O)C(=O)C1c1nc2ccccc2s1`: the TGI in the assay with DMS 114 small cell lung, with HOP-18 NSCLC, with KM20L2 colon, in the assay with LXFL 529 NSCLC, in the assay with M19-MEL melanoma and in the assay on SNB-78 CNS was above 100 µM throughout. In the assay with XF 498 CNS, this compound had a TGI above 100 µM.

Take `CCCn1cnc2c(SCC(=O)O)nc(N)nc21`: in the assay on MDA-N, the TGI is above 100 µM.

Consider `Cc1nc2ccc(Br)cc2c(=O)n1-c1ccc(NC2OCC(O)C(O)C2O)cc1` (stereo unspecified), for which, in the assay on MDA-N, the GI50 was 43.9 µM and > 100 µM; the TGI is above 100 µM.

As for `COc1ccc(-c2cc(C(=O)Nc3cc(C(F)(F)F)cc(C(F)(F)F)c3)c3ccccc3n2)cc1`, the TGI in the assay with DMS 114 small cell lung was 21.1 µM; in the assay with HOP-18 NSCLC it was 51.8 µM; in the assay on KM20L2 colon it was 31.4 µM; with LXFL 529 NSCLC it was 20.9 µM; in the assay on M19-MEL melanoma, 63 µM; with SNB-78 CNS it was 52.1 µM. This compound also came in with a TGI with XF 498 CNS of 22.5 µM.

For the compound `Cc1ccc(Oc2ccccc2N)cc1`, the TGI in the assay with DMS 114 small cell lung is above 100 µM; in the assay with HOP-18 NSCLC it was above 100 µM; in the assay with KM20L2 colon, 30.4 µM; with LXFL 529 NSCLC, above 100 µM; with RXF-631 renal it was above 100 µM; in the assay on SNB-78 CNS, above 100 µM. The TGI in the assay with XF 498 CNS was above 100 µM.

Take `C[Si](C)(c1ccc(C(=O)O)cc1)c1ccc(C(=O)O)cc1`: the TGI with MDA-N was above 100 µM.

Turning to `Clc1cccc(N2CCN(CCCN3CCc4c([nH]c5ccccc45)C3c3cccnc3)CC2)c1` (stereo unspecified), the TGI was 36 µM in the assay on HOP-18 NSCLC; 18.8 µM in the assay with KM20L2 colon; 24.4 µM in the assay with LXFL 529 NSCLC; 23.4 µM in the assay on M19-MEL melanoma; above 100 µM with RXF-631 renal; 9.39 µM in the assay with SNB-78 CNS. The GI50 in the assay on LXFL 529 NSCLC is 11.3 µM; with RXF-631 renal, 19500 nM; in the assay on SNB-78 CNS, 2880 nM.

With `[O-]c1ccccc1C=Nc1ccc2c(c1)CCC2.[O-]c1ccccc1C=Nc1ccc2c(c1)CCC2.[O]=[U+2]=[O]`, the GI50 was 7.05 µM with DMS 114 small cell lung; 8.74 µM in the assay with HOP-18 NSCLC; 56.6 µM in the assay with KM20L2 colon; 28.4 µM with LXFL 529 NSCLC; above 100000 nM in the assay with M19-MEL melanoma; above 100000 nM in the assay on RXF-631 renal. In addition, the values for the GI50 in the assay with SNB-78 CNS and with XF 498 CNS were above 100000 nM and above 100 µM, respectively. Also, the TGI in the assay on DMS 114 small cell lung, in the assay with HOP-18 NSCLC, in the assay on KM20L2 colon, in the assay with LXFL 529 NSCLC, in the assay on M19-MEL melanoma and with RXF-631 renal was above 100 µM in each case. The TGI with SNB-78 CNS and in the assay with XF 498 CNS was above 100 µM each time.

For the compound `NNc1cnn(-c2ccccc2)c(=O)c1Cl`, the TGI with DMS 114 small cell lung, in the assay with HOP-18 NSCLC, in the assay with KM20L2 colon, in the assay with LXFL 529 NSCLC, in the assay with M19-MEL melanoma and with SNB-78 CNS was above 100 µM each time.

As to `Cc1c(C(=O)/C=C/C=C/c2ccccc2)[n+](=O)c2ccccc2n1[O-]`, the TGI was above 100 µM with DMS 114 small cell lung; above 100 µM in the assay with HOP-18 NSCLC; above 100 µM in the assay with KM20L2 colon; 51.2 µM in the assay on LXFL 529 NSCLC; above 100 µM with M19-MEL melanoma; above 100 µM with SNB-78 CNS. In the assay with XF 498 CNS, this compound registered a TGI of 95.3 µM.

In turn, `O=C(O)/C=C\C(=O)Nc1ccccn1` returned a TGI in the assay on MDA-N above 100 µM.

Take `CC(C)(O)/C=C/C(=O)[C@](C)(O)[C@H]1[C@H](O)C[C@@]2(C)[C@@H]3CC=C4[C@@H](C[C@H](O)C(=O)C4(C)C)[C@]3(C)C(=O)C[C@]12C`: the GI50 in the assay on DMS 114 small cell lung is 0.108 µM; with HOP-18 NSCLC it was 0.0838 µM; with KM20L2 colon, 0.0872 µM; in the assay on LXFL 529 NSCLC, 0.0484 µM; in the assay with M19-MEL melanoma, 78.1 nM; in the assay with RXF-631 renal, 116 nM and 340 nM. For the same compound, the GI50 in the assay on SNB-78 CNS is 203 nM. For the same compound, the TGI in the assay with DMS 114 small cell lung is 0.948 µM and 9.41 µM; in the assay with HOP-18 NSCLC, 0.41 µM and 0.394 µM; with LXFL 529 NSCLC it was 4.09 µM; in the assay with M19-MEL melanoma, 20.7 µM; with RXF-631 renal, 0.549 µM and 1.97 µM; in the assay with SNB-78 CNS, 0.92 µM and 1.67 µM.

As for `O=C(O)c1cc(=O)c2c([nH]c3ccccc32)s1`, the TGI with DMS 114 small cell lung, in the assay with KM20L2 colon, in the assay on LXFL 529 NSCLC, in the assay with M19-MEL melanoma, in the assay with RXF-631 renal and in the assay with SNB-78 CNS was above 100 µM each time. The TGI with XF 498 CNS was above 100 µM.
